# Columns and labels:
# Type in all cases: cell-based
# [1] = tested on: fungal mix: Aspergillus brasiliensis DSM 1988, Rhodotorula mucilaginosa DSM 13621, Yarrowia lipolytica DSM 8218; assay: Preservative activity in a diluted non-ionic surfactant solution (1% Lutensol ON 70, pH 7.0) with 2-phenoxyethanol against fungal mix (Example 1.6); conditions: Surfactant solution + 0.81% PE, no amide (Comparative 2)
# Description: A surfactant solution in phosphate buffer of pH 7.0 containing 1% by weight of Lutensol ON 70, a C10-fatty alcohol ethoxylated with 7EO, was used.
# The samples were contaminated with a fungal mix consisting of: • Aspergillus brasiliensis DSM 1988 • Rhodotorula mucilaginosa DSM 13621 • Yarrowia lipolytica DSM 8218
# The samples were inoculated with the fungal mix at day 0 and 7 to obtain 1-3×10E+05 CFU/ml inoculation in the test sample consisting of the above-defined surfactant solution and stored at 25° C. for 14 days. CFU was determined before re-inoculation at day 7, and on day 14.
# Any CFU value at d7 and d14 obtained with a surfactant solution sample of the invention containing 2-phenoxyethanol and amide (surfactant solution+0.81% PE+0.09% of amide) lower than the respective value of the “comparative 2” example (surfactant solution+0.81% by weight of 2-phenoxyethanol) indicates a better performance of the inventive combination of 2-phenoxyethanol with the amide.
# [2] = tested on: bacterial mix: Escherichia coli DSM 1576, Alcaligenes faecalis DSM 13644, Pseudomonas aeruginosa ATCC 15442, Staphylococcus aureus ATCC 6538, Burkholderia …; assay: Preservative activity in a manual dishwashing composition (MDW, pH 7.1) with 2.0% 2-phenoxyethanol against bacterial mix (Example 2.4); conditions: MDW + 2.0% PE, no amide (Comparative 2)
# Protocol: A manual dish wash detergent (MDW) of pH 7.1 containing the following components was used:
# The samples were contaminated with a bacterial mix consisting of: • Escherichia coli DSM 1576 • Alcaligenes faecalis DSM 13644 • Pseudomonas aeruginosa ATCC 15442 • Staphylococcus aureus ATCC 6538 • Burkholderia cepacia DSM 7288 • Pseudomonas putida DSM 12735
# The samples were inoculated with the bacterial mix at day 0 and 7 to obtain 10E+06 to 10E+07 CFU/ml inoculation in the test sample and stored at 25° C. for 21 days. CFU was determined before re-inoculation at day 7 and on days 14 and 21.
# Any CFU value at day 7 (d7), day 14 (d14) or day 21 (d21) obtained with a sample according to the invention containing 2-phenoxyethanol and amide (MDW+2.0% PE+x % Amide) lower than the respective value of the “comparative 2” example (MOW+2.0% by weight of 2-phenoxyethanol) indicates a better performance.
# [3] = tested on: bacterial mix: Escherichia coli DSM 1576, Alcaligenes faecalis DSM 13644, Pseudomonas aeuginosa ATCC 15442, Staphylococcus aureus ATCC 6538, Burkholderia …; assay: Preservative activity of a basic composition (10% PG in water, pH 7) with 2-phenoxyethanol against bacterial contamination (Example 2.1); conditions: 10% PG + 0.4% PE, no amide (Comparative 2)
# [4] = tested on: bacterial mix: Escherichia coli DSM 1576, Alcaligenes faecalis DSM 13644, Pseudomonas aeuginosa ATCC 15442, Staphylococcus aureus ATCC 6538, Burkholderia …; assay: as above; conditions: 10% PG + 0.36% PE + 0.04% amide
# Protocol: (§1) An aqueous composition of pH 7 comprising 10% by weight of propyleneglycol (PG) as organic solvent, 0.36% by weight of 2-phenoxyethanol (PE) as antimicrobial and 0.04% by weight of the amide listed in the below table was tested for its preserving activity against bacterial contamination (the weight percentages relate to the total weight of the composition). For this purpose, the samples were contaminated with a bacterial mix consisting of: • Escherichia coli DSM 1576 • Alcaligenes faecalis DSM 13644 • Pseudomonas aeuginosa ATCC 15442 • Staphylococcus aureus ATCC 6538 • Burkholderia cepacia DSM 7288 • Pseudomonas putida DSM 12735
# The samples were inoculated with the bacterial mix at day 0, 7 and 14 to obtain 10E+06 to 10E+07 CFU/ml inoculation in the test samples (compositions listed in the below table) consisting of 10% by weight of propylene glycol in water and stored at 25° C. for 21 days.
# CFU was determined before re-inoculation at days 7 and 14, and on day 21.
# [5] = tested on: bacterial mix: Escherichia coli DSM 1576, Alcaligenes faecalis DSM 13644, Pseudomonas aeruginosa ATCC 15442, Staphylococcus aureus ATCC 6538, Burkholderia …; assay: Preservative activity of a basic composition (10% PG in water, pH 7) with 1,2-benzisothiazol-3(2H)-one (BIT) against bacterial contamination (Example 2.3); conditions: day 7
# Protocol: as §1, with “0.004%” for “0.36%”, “1,2-benzisothiazol-3(2H)-one (BIT)” for “2-phenoxyethanol (PE)”, “(the percentages are” for “(the”, “percent and” for “percentages”, “aeruginosa” for “aeuginosa”
# The samples were inoculated with the bacterial mix at day 0 to obtain 10E+06 to 10E+07 CFU/ml inoculation in the test sample and stored at 25° C. for 7 days.
# CFU was determined at day 7.
# Any CFU value at day 7 (d7) obtained with a sample according to the invention containing BIT and amide (10% PG+0.004% BIT+Amide in water) lower than the respective value of the “comparative 2” example (10% by weight of propyleneglycol+0.004% by weight of 1,2-benzisothiazol-3(2H)-one (BIT) in water) indicates a better performance.
SMILES,d7 [CFU/ml] ([1]; day 7),d14 [CFU/ml] ([1]; day 14),d7 [CFU/ml] ([2]; day 7),d14 [CFU/ml] ([2]; day 14),d21 [CFU/ml] ([2]; day 21),d7 [CFU/ml] ([3]; day 7),d14 [CFU/ml] ([3]; day 14),d21 [CFU/ml] ([3]; day 21),d7 [CFU/ml] ([4]; day 7),d14 [CFU/ml] ([4]; day 14),d21 [CFU/ml] ([4]; day 21),d7 [CFU/ml] ([5]; 10% PG + 0.004% BIT + 0.04% amide),"d7 [CFU/ml] ([5]; 10% PG + 0.1% amide, no BIT (Comparative 1))"
"OCCOc1ccccc1 [PE, 2-phenoxyethanol, reference compound]","16,500 CFU/ml","45,00 CFU/ml",330,"2,800 CFU/ml","38,500 CFU/ml","65,000 CFU/ml",">100,000 CFU/ml",">100,000 CFU/ml",,,,,
"CCCCCCCCCC(=O)N(C)C [n-Decanoyl-N,N-dimethylamide]",,,,,,,,,<10,<10,<10,"4,000 CFU/ml",">100,000 CFU/ml"
